Values of other authors in patent US20120328537A1, “Topical wound management formulation” (priority 2011, published 2012).

Test system: Strep Mutans
Settings: in particular Strep Mutans, the main bacteria responsible for dental caries

## OC[C@@H](O)[C@H](O)[C@@H](O)CO [Xylitol]
  growth of bacteria: inhibit the growth of bacteria
